Results on two substances are retold here after US7855076B2, “Use of discoidin domain receptor 1 (DDR1) and agents that affect the DDR1/collagen pathway” (The United States of America as represented by the …, priority 2002, dated 2010).

The subject of one assay is DDR1 protein. Nature of the assay: DDR1 protein expression in leukocytes by immunoprecipitation and Western blotting. It counts as cell-based, human. Conditions: PBMC; TNF-α 5 ng/ml or GM-CSF 10 ng/ml, 36 hours. The method, then:
For Western blot analysis, cell lysates were prepared from freshly isolated PBMC, PBMC incubated overnight in RPMI 1640 containing 10% FCS, and MCF-7 cells. Cells were lysed on ice for 20 minutes in a buffer containing 50 mM Hepes, 150 mM NaCl, 1% Triton X-100, 10% glycerol, 10 mM NaF, 1 mM ethylenediamine tetraacetic acid, […], 1 mg/ml leupeptin, 1 mM phenylmethylsulfonyl fluoride, 1 mg/ml aprotinin, and 1 mg/ml pepstatin A. The lysates were spun, and the supernatants were collected. The samples were incubated with approximately 20 μl packed volume of PGS for 1 hour at 4° C. After centrifugation, supernatants were collected, mixed with 1 μg/ml normal rabbit IgG or polyclonal anti-human DDR1 IgG, and incubated for 1 hour at 4° C. PGS (20 μl) was then added and incubated for another 1 hour. IgG-coupled PGS was washed with the buffer containing 50 mM Hepes, 150 mM NaCl, 0.1% Triton X-100, 10% glycerol buffer three times, and 20 μl double-strength sample buffer (20% glycerol, 6% sodium dodecylsulfate (SDS), 10% 2-mercaptoethanol) was added. The samples were boiled for 10, minutes. Eluted proteins were analyzed on 7.5% polyacrylamide gels by SDS polyacrylamide gel electrophoresis (SDS-PAGE) and transferred electrophoretically to nitrocellulose membranes (Amersham, Arlington Heights, Ill.) at 200 mA for 2 hours by a semi-dry system. The membranes were incubated with polyclonal anti-human DDR1 or anti-phosphotyrosine IgG, followed by sheep anti-mouse IgG coupled with horseradish peroxidase (Amersham). Peroxidase activity was visualized by the Enhanced Chemiluminescence Detection System (Amersham).
There was no detectable DDR1 protein in freshly isolated PBMC. DDR1 protein was detected clearly after overnight incubation in RPMI 1640 containing 10% FCS. In order to study the kinetics of DDR1 protein expression, PBMC were incubated with or withour addition of TNF-α (5 ng/ml), or GM-CSF (10 ng/ml) for 36 hours and cell lysates were prepared. Cell lysates were subjected to immunoprecipitation with anti-DDR1 IgG or control IgG. […]

For a further assay, the system named is IκBα. Nature of the assay: IκB degradation in PMA-treated THP-1 cells, Western blotting. In kind it is cell-based, human. Particulars: 10 nM PMA. The method, then:
Mock-transduced and DDR1b-overexpressing THP-1 cells were plated at 5×10^6cells/ml and treated with 10 nM PMA on collagen-coated plates for varous times. Ten million cells were lysed on ice for 20 minutes in a buffer containing 50 mM NaCl, 20 mM Tris-HCl, 50 mM sodium fluoride, 30 mM Na4P2O7, 5 mM EGTA, 3 mM sodium orthovanadate, 1% Triton X-100; 1 mg/ml leupeptin, 1 mM PMSF, 1 mg/ml aprotinin, 1 mg/ml pepstatin A and 100 μM sodium orthovanadate in […] lysates were spun and the supernatants were collected. Each sample was boiled in double-strength sample buffer for 10 minutes, electrophoresed on 10% polyacrylamide gels by SDS-PAGE, and transferred electrophoretically to nitrocellulose membranes at 150 mA for 1 hour by a semi-dry system. The membranes were incubated with mouse monoclonal anti-IκB antibody followed by sheep anti-mouse IgG coupled with horseradish peroxidase. Peroxidase activity was visualized by the Enhanced Chemiluminescence Detection System (Amersham).
A general note: In western blotting, separated proteins are transferred to a membrane and probed.

Consider TNF-α, for which the “level of DDR1 protein expression” value in the assay on DDR1 protein was “increased”.

As to collagen, the “amounts of IκBα” value in the assay with IκBα (DDR1b-overexpressing cells, at 2 and 3 hours) is “decreased”. In the assay on IκBα (mock-transduced cells), the “level of IκBα” value is recorded as “unchanged”.
